Source: patent US8592431B2, “Fused ring compound and use thereof” (Takeda Pharmaceutical Company Limited, priority 2009, dated 2013)

Assays:
Male SHRs = assay: Antihypertensive effect: mean blood pressure in SHRs after oral administration; assay type: in vivo, rat; conditions: SHR, during 24 hours after administration
Description: Male SHRs (28-40 weeks old, Japan SLC, Inc., Japan) were anesthetized with sodium pentobarbital (50 mg/kg, i.p.). The left femoral artery was cannulated with a polyethylene catheter filled with saline comprising heparin (200 U/mL). The catheter was exteriorized at the back of the neck and each SHR was individually housed in a cage and left two or four days to recover. The mean blood pressure (MBP) was obtained from the systemic blood pressure which was monitored from the femoral artery using a pressure transducer connected to a polygraph system (Nihon Kohden Corporation). The heart rate was measured from the blood pressure pulse intervals. The rats which had MBP over 150 mmHg were used for the experiment. When the blood pressure had stabilized, vehicle (0.5 w/v % methylcellulose) or compounds were orally administered. All compounds were suspended in 0.5 w/v % methylcellulose and orally administered at a volume of 2 mL/kg. The MBP was measured during 24 hours after the administration.

Male Wistar fatty rats = assay: Plasma triglyceride and glucose lowering in Wistar fatty rats, oral, once a day for 2 weeks; assay type: in vivo, rat; conditions: versus vehicle group
Description: Male 25-31 weeks-old Wistar fatty rats (Takeda Pharmaceutical Company) were divided to each group with equalization of plasma levels of triglyceride, glucose and body weight in fed condition. The groups of rats were treated with vehicle (0.5 w/v % methylcellulose) or compounds. All compounds were suspended in 0.5 w/v % methylcellulose and orally administered at a volume of 2 mL/kg, once a day for 2 weeks. The next day of the final administration, blood was collected from the tail vein to measure plasma parameters. Heparin was used as an anticoagulant. Plasma levels of triglyceride and glucose were measured enzymatically using Hitachi Autoanalyser 9000. The inhibition rates from vehicle treatment group were calculated for each compound after the treatment for 2 weeks.

human AT1 receptor = human AT1 receptor (Homo sapiens (Human), UniProt P30556); assay: AT1 receptor antagonistic activity: [125I]-angiotensin II binding assay with AT1 membrane; conditions: 22.5 pM [125I]-angiotensin II, human AT1 receptor-expressing CHO-K1 membrane, 1 hr room temperature
Sequence of human AT1 receptor (P30556 whole entry): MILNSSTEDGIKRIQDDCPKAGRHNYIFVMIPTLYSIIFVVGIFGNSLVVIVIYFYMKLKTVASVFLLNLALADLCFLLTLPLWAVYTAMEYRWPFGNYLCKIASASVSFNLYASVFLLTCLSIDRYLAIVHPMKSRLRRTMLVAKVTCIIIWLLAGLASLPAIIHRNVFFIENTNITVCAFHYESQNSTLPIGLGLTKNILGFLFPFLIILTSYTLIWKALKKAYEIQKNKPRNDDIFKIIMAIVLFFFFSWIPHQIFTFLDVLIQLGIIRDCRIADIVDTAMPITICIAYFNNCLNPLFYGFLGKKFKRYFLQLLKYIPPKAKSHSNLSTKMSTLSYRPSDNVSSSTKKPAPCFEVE
Description: Evaluation of AT1 Receptor Antagonistic Activity
(1) Preparation of Human AT1 Receptor-Expressing CHO-K1 Cellular Membrane Fraction
CHO-K1 cell (RIKEN, Japan) capable of stable expression of human AT1 receptor was cultured, recovered, suspended in homogenize buffer (10 mM NaHCO3 (pH 7.4), 5 mM EDTA, 1× Complete EDTA free) [manufactured by Roche, Switzerland], and homogenized. The homogenate was centrifuged at low-speed (900×g, 10 min, 4° C.), and the supernatant was recovered and ultracentrifuged (90,000×g, 1 hr, 4° C.). The supernatant was discarded, and the pellets were resuspended in suspension buffer (50 mM Tris (pH 7.4), 1 mM EDTA, 1× Complete EDTA free).
(2) Evaluation of AT1 Receptor Antagonistic Activity
(9 μg) in the presence of AT1 membrane and test compound in 100 μL (total reaction volume) of reaction buffer (50 mM Tris (pH 7.4), 10 mM MgCl2 supplemented or not supplemented with 0.3 mg/mL fatty acid-free bovine serum albumin [manufactured by Wako Pure Chemical Industries, Ltd., Japan]). The reaction mixture was incubated in 96 well polypropylene plate for 1 hr at room temperature, and the reaction was quenched by rapid filtration (96 well cell harvester) through a GF/C filter treated with wash buffer (50 mM Tris (pH 7.4)). Subsequently, the filter was washed 5 times with 0.3 mL of ice-cooled wash buffer. […] Total binding was measured in the presence of 1% DMSO and nonspecific binding was measured in the presence of 1 μM Candesartan.

[1] = 10 mg/kg once a day for 2 weeks
[2] = 30 mg/kg once a day for 2 weeks

CCCc1c(Cc2ccc(-c3ccccc3-c3noc(=O)[nH]3)cc2)c(=O)n([C@H]2CC[C@H](OCC(C)(C)O)CC2)c2ccnn12.[K] [Example 415, 4-[trans-4-(2-hydroxy-2-methylpropoxy)cyclohexyl]-6-{[2′-(5-oxo-4,5-dihydro-1,2,4-oxadiazol-3-yl)biphenyl-4-yl]methyl}-7-propylpyrazolo[1,5-a]pyrimidin-5(4H)-one potassium salt]
Maximum MBP reduction (mmHg) (Male SHRs; dose 3 mg/kg): 63 mmHg | Inhibition rate of plasma glucose (%) (Male Wistar fatty rats; 3 mg/kg once a day for 2 weeks): 25.1% | Inhibition rate of plasma triglyceride (%) (Male Wistar fatty rats; 3 mg/kg once a day for 2 weeks): 38.1% | Inhibition rate of plasma glucose (%) (Male Wistar fatty rats; [1]): 54.3% | Inhibition rate of plasma triglyceride (%) (Male Wistar fatty rats; [1]): 57.7%

CCCc1c(Cc2ccc(-c3ccccc3-c3noc(=O)[nH]3)cc2)c(=O)n([C@H]2CC[C@H](OCC(C)(C)O)CC2)c2ccnn12 [Example 413, 4-[trans-4-(2-Hydroxy-2-methylpropoxy)cyclohexyl]-6-{[2′-(5-oxo-4,5-dihydro-1,2,4-oxadiazol-3-yl)biphenyl-4-yl]methyl}-7-propylpyrazolo[1,5-a]pyrimidin-5(4H)-one]
Maximum MBP reduction (mmHg) (Male SHRs; dose 10 mg/kg): 79 mmHg | Inhibition rate of plasma glucose (%) (Male Wistar fatty rats; 3 mg/kg once a day for 2 weeks): 6.5% | Inhibition rate of plasma triglyceride (%) (Male Wistar fatty rats; 3 mg/kg once a day for 2 weeks): 12.0% | Inhibition rate of plasma glucose (%) (Male Wistar fatty rats; [1]): 19.1% | Inhibition rate of plasma triglyceride (%) (Male Wistar fatty rats; [1]): 21.5% | Inhibition rate of plasma glucose (%) (Male Wistar fatty rats; [2]): 53.3% | Inhibition rate of plasma triglyceride (%) (Male Wistar fatty rats; [2]): 46.0% | IC50 (human AT1 receptor): 1.6 nM

CCCc1c(Cc2ccc(-c3ccccc3-c3noc(=O)[nH]3)cc2F)c(=O)n(C2CCC(OC(C)C(C)(C)O)CC2)c2ncnn12 (single isomer, unassigned; (+)) [Example 458, hydrate]
Maximum MBP reduction (mmHg) (Male SHRs; dose 30 mg/kg): 70 mmHg | Inhibition rate of plasma glucose (%) (Male Wistar fatty rats; 3 mg/kg once a day for 2 weeks): −0.2% | Inhibition rate of plasma triglyceride (%) (Male Wistar fatty rats; 3 mg/kg once a day for 2 weeks): 33.5% | Inhibition rate of plasma glucose (%) (Male Wistar fatty rats; [1]): 6.9% | Inhibition rate of plasma triglyceride (%) (Male Wistar fatty rats; [1]): 39.0% | Inhibition rate of plasma glucose (%) (Male Wistar fatty rats; [2]): 43.3% | Inhibition rate of plasma triglyceride (%) (Male Wistar fatty rats; [2]): 59.2%
